How the values were obtained:
μ-calpain = target: T1, μ-calpain (Homo sapiens, UniProt P07384); test: Cleavage of purified recombinant p21cip1 by purified μ-calpain; format: biochemical; details: E64d 100 μM; 0.4 μg p21^cip1, 0.004 units μ-calpain, 30 min at 30° C.; Western blot (FIG. 19)
T1 construct: purchased Calbiochem (San Diego, Calif.)
T1 sequence (P07384 1-714): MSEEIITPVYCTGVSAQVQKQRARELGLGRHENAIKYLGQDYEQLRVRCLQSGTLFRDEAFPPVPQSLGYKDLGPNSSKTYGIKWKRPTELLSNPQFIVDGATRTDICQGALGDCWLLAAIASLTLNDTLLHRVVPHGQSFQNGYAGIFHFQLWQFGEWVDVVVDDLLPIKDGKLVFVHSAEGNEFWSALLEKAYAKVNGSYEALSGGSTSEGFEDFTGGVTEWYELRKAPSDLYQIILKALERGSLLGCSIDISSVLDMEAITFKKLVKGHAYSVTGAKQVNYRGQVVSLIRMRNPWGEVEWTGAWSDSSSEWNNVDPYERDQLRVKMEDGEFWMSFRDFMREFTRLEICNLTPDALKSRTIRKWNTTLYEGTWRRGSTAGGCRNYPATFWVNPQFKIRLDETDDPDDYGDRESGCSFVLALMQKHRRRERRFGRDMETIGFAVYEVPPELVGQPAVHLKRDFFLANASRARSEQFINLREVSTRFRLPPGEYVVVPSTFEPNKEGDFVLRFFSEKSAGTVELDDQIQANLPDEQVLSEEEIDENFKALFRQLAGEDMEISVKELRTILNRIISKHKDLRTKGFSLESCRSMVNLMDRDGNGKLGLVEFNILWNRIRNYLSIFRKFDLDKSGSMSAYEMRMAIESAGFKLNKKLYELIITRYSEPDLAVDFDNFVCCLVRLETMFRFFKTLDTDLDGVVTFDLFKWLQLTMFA
T1 sequence (P04632 1-268 partner): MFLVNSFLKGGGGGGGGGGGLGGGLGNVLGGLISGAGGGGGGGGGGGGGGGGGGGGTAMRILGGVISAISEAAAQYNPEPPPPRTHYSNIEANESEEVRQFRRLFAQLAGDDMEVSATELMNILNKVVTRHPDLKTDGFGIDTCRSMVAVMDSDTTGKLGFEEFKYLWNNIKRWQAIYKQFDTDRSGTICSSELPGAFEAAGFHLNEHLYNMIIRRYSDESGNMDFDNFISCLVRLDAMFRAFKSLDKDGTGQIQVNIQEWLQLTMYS
Method: (§1) Cleavage of p21^cip1 by calpain. Recombinant p21^cip1 was provided by Harper (37) or Ke (47), and was also prepared using the expression plasmid pET-p21 (37) according to the published methods (30). To evaluate the effect of calpains on p21^cip1, 400 ng of purified recombinant p21^cip1 was incubated with 0.004 units of either pure μ-calpain or m-calpain at 30° C. for 30 minutes in 40 μl of cleavage buffer, containing 25 mM Tris-HCl (pH 7.5), 100 mM NaCl, 3 mM DTT and 5 mM CaCl2 (44). EDTA was added to 10 mM to stop the reaction. An equal volume of 2×SDS gel-loading buffer (18) was mixed with the digestion mixture and the mixture was immediately boiled for 5 min. The digestion products were evaluated by Western blot analysis or SDS-PAGE and coomassie brilliant blue staining.
FIGS. 19 and 20. Cleavage of purified recombinant p21^cip1 by purified ubiquitous calpains. 19. p21^cip1 (0.4 μg) was incubated with μ-calpain (0.004 units) for 30 min at 30° C. in the presence or absence of E64d (100 μM) and the resulting products were analyzed by Western blot analysis, as described in Materials and Methods 20. p21^cip1 (4 μg) or casein (3 μg) was incubated with 0.04 units of μ-calpain or m-calpain for 30 min at 30° C. and the products of the digestion were examined by SDS-PAGE and coomassie brilliant blue staining. […]

m-calpain = target: T2, m-calpain (Homo sapiens, UniProt P17655); test: Cleavage of purified recombinant p21cip1 by purified m-calpain; format: biochemical; details: purified recombinant p21^cip1 incubated with m-calpain
T2 construct: purchased Sigma (St. Louis, Mo.)
T2 sequence (P17655 1-700): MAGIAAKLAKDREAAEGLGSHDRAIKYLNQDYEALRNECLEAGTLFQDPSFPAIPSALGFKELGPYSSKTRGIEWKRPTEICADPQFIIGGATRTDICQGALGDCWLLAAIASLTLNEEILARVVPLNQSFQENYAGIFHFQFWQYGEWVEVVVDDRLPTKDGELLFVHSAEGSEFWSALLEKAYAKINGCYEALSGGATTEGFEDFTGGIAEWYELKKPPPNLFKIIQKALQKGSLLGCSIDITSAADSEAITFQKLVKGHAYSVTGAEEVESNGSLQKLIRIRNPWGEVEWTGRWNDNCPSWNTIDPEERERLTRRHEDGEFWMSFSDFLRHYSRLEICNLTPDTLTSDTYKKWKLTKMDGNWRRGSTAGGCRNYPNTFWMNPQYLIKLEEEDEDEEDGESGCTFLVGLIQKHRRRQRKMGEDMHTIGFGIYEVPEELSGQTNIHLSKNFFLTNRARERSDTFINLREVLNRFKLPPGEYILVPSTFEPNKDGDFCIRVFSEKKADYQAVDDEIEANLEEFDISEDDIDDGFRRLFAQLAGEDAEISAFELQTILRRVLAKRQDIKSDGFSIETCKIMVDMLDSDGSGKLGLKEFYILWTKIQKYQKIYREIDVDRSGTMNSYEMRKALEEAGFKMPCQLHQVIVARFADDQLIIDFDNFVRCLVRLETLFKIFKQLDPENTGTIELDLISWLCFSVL
T2 sequence (P04632 1-268 partner): T1 sequence (P04632 1-268 partner)
Method: as §1

proteolysis of p21^cip1 by μ-calpain (in words) (μ-calpain): inhibited the proteolysis | proteolysis of p21^cip1 by m-calpain (in words) (m-calpain): inhibited the proteolysis
Compound: CC(C)C[C@H](NC(=O)[C@H]1O[C@@H]1C(=O)O)C(=O)NCCCCN=C(N)N (relative stereo) [E64d, trans-epoxysuccinyl-L-leucylamido (4-guanidino)-butane]

From US7271148B2, “Inhibition of cellular proteases” (The Board of Regents of The University of Texas System, priority 1999, dated 2007)
